Data reported in US7033583B2, “Polymeric thiol-linked prodrugs” (Enzon Pharmaceuticals, Inc., priority 2001, dated 2006).

Columns and labels:
[1] = tested on: Lung M109 Syngeneic Solid Tumors; assay: In vivo efficacy against M109 solid tumors; parameters: species or system Balb/C mice; conditions: i.v. day 1 & 4; for T/C (%) at Day 25: control median tumor ~2000 mm^3
Description: M109 cells (NCI), derived from donor mice, were grown and expanded in tissue culture for in vivo implantation. Cells were grown in EMEM with 10% FBS and 1% streptomycin/penicillin media, kept in an incubator at 37° C. with 5% CO2 and split twice a week. Cells were trypsinized, harvested, washed, counted and prepared in PBS for transport to the vivarium. Cells were kept on ice until implantation was conducted with minimum lag time. A cell suspension of approximately 5×10^6 cells/mL was used. Balb/C mice were implanted subcutaneous with 100 μL of the above cell suspension (Day 0). Treatments were administered intravenously on Day 1 and Day 4. Compound doses were based on the content of 6-MP. Body weight and tumor volume were then measured twice weekly until the group's median tumor volume exceeded 2000 mm^3. The tumor volume for each mouse was determined by measuring two dimensions with calipers and calculated using the formula: tumor volume=(length×width^2)/2. Drug effects were determined by comparing tumor growth in treated versus control (no vehicle) mice. Three types of endpoints were used as the basis for comparison: (a) the percent difference in tumor volume (% T/C), measured when the control group's median tumor volume reached approximately 800–1100 mm^3 (exponential growth phase), (b) again when the control group's median tumor volume was approximately 2000 mm^3 and (c) the number of tumor regression (smaller tumor volume on Day 25 compared to Day 1) per group.

[2] = tested on: P388/0 cell lines; assay: Cytotoxicity assay (Alamar Blue) in P388/0 cells; format: cell-based; conditions: Mus musculus, 72 h, 3 days
Description: Cell Lines and Cytotoxicity Assays. Studies using P388/0 cell lines for IC50 (drug concentration inhibiting growth of cells by 50%) were maintained and conducted as previously reported. Briefly, for IC50 determination, cells were seeded into the microwell plates at a density of 2×10^3 cells per 50 μL per well. Plates were incubated at 37° C. in a humidified incubator with 5% CO2 for 3 days. Cell growth was measured by the addition of 10 μL/well of Alamar Blue (Alamar Biosciences, Inc., Sacramento, Calif.) and the plates were incubated a further 4 h at 37° C. The IC50 values for each compound were determined from absorbance versus dilution factor plots. All cell cultures for animal implantation were maintained at 37° C. in a humidified atmosphere of 5% CO2/95% O2 and subcultured once a week. All cell lines were periodically tested for Mycoplasma and were Mycoplasma free.

Sc1ncnc2nc[nH]c12 [Compound 1, 6-mercaptopurine, reference compound]
inhibiting the growth of M109 solid tumors ([1]; Balb/C mice): ineffective | T/C (%) at Day 18 ([1]; total dose 60 mg/kg (6-MP content), control median tumor ~1000 mm^3): 127.1% | T/C (%) at Day 25 ([1]; total dose 60 mg/kg (6-MP content)): 122.0% | T/C (%) at Day 25 ([1]; total dose 200 mg/kg): 183.8% | IC50 [2]: 2.67 µM
